Test results: ChEMBL document CHEMBL1201862, “PubChem BioAssay data set” (2004)
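A five-concentration, 48-hour dose response in 96-well plates underlies each endpoint, interpolated linearly between surrounding concentrations. Here, GI50 denotes the concentration required for 50% inhibition of growth.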 Calls of active or inactive are those of the source. Cut-off read from the data, not from the text of the source: active = GI50 up to about 1.1 µM and inactive = higher.

Tests used:
Experiment in all cases: NCI tumour cell line growth inhibition, 48 h
[1] = test system: 786-0
[2] = test system: A498
[3] = test system: A549
[4] = test system: ACHN
[5] = test system: BT-549
[6] = test system: CAKI-1
[7] = test system: CCRF-CEM
[8] = test system: COLO 205
[9] = test system: DU-145
[10] = test system: EKVX
[11] = test system: HCC 2998
[12] = test system: HCT-116
[13] = test system: HCT-15
[14] = test system: HL-60
[15] = test system: HOP-62
[16] = test system: HOP-92
[17] = test system: HT-29
[18] = test system: Hs-578T
[19] = test system: IGROV-1
[20] = test system: K562
[21] = test system: KM12
[22] = test system: LOX IMVI
[23] = test system: M14
[24] = test system: MCF7
[25] = test system: MDA-MB-231
[26] = test system: MDA-MB-435
[27] = test system: MOLT-4
[28] = test system: Malme-3M
[29] = test system: NCI-H226
[30] = test system: NCI-H23
[31] = test system: NCI-H460
[32] = test system: NCI-H522
[33] = test system: NCI/ADR-RES
[34] = test system: OVCAR-3
[35] = test system: OVCAR-4
[36] = test system: OVCAR-5
[37] = test system: OVCAR-8
[38] = test system: PC-3
[39] = test system: RPMI-8226
[40] = test system: RXF 393
[41] = test system: SF-268
[42] = test system: SF-295
[43] = test system: SF-539
[44] = test system: SK-MEL-28
[45] = test system: SK-MEL-2
[46] = test system: SK-MEL-5
[47] = test system: SK-OV-3
[48] = test system: SN12C
[49] = test system: SNB-19
[50] = test system: SNB-75
[51] = test system: SR
[52] = test system: SW-620
[53] = test system: T47D
[54] = test system: U-251
[55] = test system: UACC-257
[56] = test system: UACC-62
[57] = test system: UO-31
[58] = test system: MDA-N
[59] = test system: TK-10

Q: How did the GI50 [1] turn out when CCNC(=O)c1cc(/C=C/c2ccc([N+](=O)[O-])o2)nc2ccccc12 was run?
A: The GI50 was 11.3 µM (inactive).

Q: What about the GI50 [2] of the same compound?
A: Its GI50 is 15.5 µM (inactive).

Q: And the GI50 [3]?
A: The GI50 was 24.2 µM (inactive).

Q: What about the GI50 [4] of the same compound?
A: The GI50 was 2.26 µM (inactive).

Q: And the GI50 [5]?
A: The GI50 was 29.8 µM (inactive).

Q: And the GI50 [6]?
A: The GI50 was 7.96 µM (inactive).

Q: What about the GI50 [7] of the same compound?
A: The GI50 was 3.18 µM (inactive).

Q: What about the GI50 [8] of the same compound?
A: The GI50 was 3.8 µM (inactive).

Q: What about the GI50 [9] of the same compound?
A: The GI50 was 2.74 µM (inactive).

Q: What about the GI50 [10] of the same compound?
A: The GI50 was > 58.2 µM (inactive).

Q: And the GI50 [11]?
A: The GI50 was 5.26 µM (inactive).

Q: And the GI50 [12]?
A: The GI50 was 5.4 µM (inactive).

Q: What about the GI50 [13] of the same compound?
A: The GI50 was 3.88 µM.

Q: What about the GI50 [14] of the same compound?
A: Its GI50 is 2.75 µM (inactive).

Q: What about the GI50 [15] of the same compound?
A: Its GI50 is 19.6 µM (inactive).

Q: And the GI50 [16]?
A: The GI50 was > 22.4 µM (inactive).

Q: What about the GI50 [17] of the same compound?
A: Its GI50 is 6.82 µM (inactive).

Q: And the GI50 [18]?
A: The GI50 was 63.7 µM (inactive).

Q: What about the GI50 [19] of the same compound?
A: Its GI50 is 5.69 µM (inactive).

Q: And the GI50 [20]?
A: Its GI50 is 6.79 µM (inactive).

Q: What about the GI50 [21] of the same compound?
A: The GI50 was 98.6 µM (inactive).

Q: What about the GI50 [22] of the same compound?
A: The GI50 was 2.85 µM (inactive).

Q: And the GI50 [23]?
A: Its GI50 is 2.34 µM (inactive).

Q: And the GI50 [24]?
A: The GI50 was 6.4 µM (inactive).

Q: What about the GI50 [25] of the same compound?
A: The GI50 was 14.9 µM (inactive).

Q: And the GI50 [26]?
A: Its GI50 is 2.19 µM (inactive).

Q: And the GI50 [27]?
A: The GI50 was 0.276 µM (active).

Q: And the GI50 [28]?
A: Its GI50 is 15.7 µM (inactive).

Q: What about the GI50 [29] of the same compound?
A: The GI50 was 5.15 µM (inactive).

Q: What about the GI50 [30] of the same compound?
A: Its GI50 is 16.9 µM (inactive).

Q: And the GI50 [31]?
A: Its GI50 is 1.8 µM (inactive).

Q: And the GI50 [32]?
A: The GI50 was 4.21 µM (inactive).

Q: And the GI50 [33]?
A: The GI50 was 51.4 µM (inactive).

Q: What about the GI50 [34] of the same compound?
A: Its GI50 is > 62.4 µM (inactive).

Q: And the GI50 [35]?
A: The GI50 was > 100 µM (inactive).

Q: What about the GI50 [36] of the same compound?
A: Its GI50 is > 100 µM (inactive).

Q: What about the GI50 [37] of the same compound?
A: The GI50 was 15.8 µM (inactive).

Q: What about the GI50 [38] of the same compound?
A: Its GI50 is > 100 µM (inactive).

Q: And the GI50 [39]?
A: Its GI50 is 29.4 µM (inactive).

Q: What about the GI50 [40] of the same compound?
A: Its GI50 is 10.2 µM (inactive).

Q: What about the GI50 [41] of the same compound?
A: Its GI50 is 23.7 µM (inactive).

Q: And the GI50 [42]?
A: The GI50 was 41.7 µM (inactive).

Q: And the GI50 [43]?
A: Its GI50 is 23.3 µM (inactive).

Q: What about the GI50 [44] of the same compound?
A: Its GI50 is 5.32 µM (inactive).

Q: What about the GI50 [45] of the same compound?
A: The GI50 was 3.52 µM (inactive).

Q: And the GI50 [46]?
A: The GI50 was 1.5 µM (inactive).

Q: What about the GI50 [47] of the same compound?
A: Its GI50 is 33.6 µM (inactive).

Q: And the GI50 [48]?
A: The GI50 was 15.3 µM (inactive).

Q: And the GI50 [49]?
A: Its GI50 is 54.7 µM (inactive).

Q: And the GI50 [50]?
A: The GI50 was 22 µM (inactive).

Q: And the GI50 [51]?
A: The GI50 was 1.38 µM (inactive).

Q: What about the GI50 [52] of the same compound?
A: The GI50 was 13.7 µM (inactive).

Q: And the GI50 [53]?
A: The GI50 was > 100 µM (inactive).

Q: And the GI50 [54]?
A: Its GI50 is 71.9 µM (inactive).

Q: And the GI50 [55]?
A: Its GI50 is 3.67 µM (inactive).

Q: And the GI50 [56]?
A: Its GI50 is 32.1 µM (inactive).

Q: What about the GI50 [57] of the same compound?
A: The GI50 was 50.5 µM (inactive).

Q: What does the source list for O=c1c(C(c2cnc3ccccc3c2)c2c(O)oc3ccccc3c2=O)c(O)oc2ccccc12?
A: GI50 [1]: 44.5 µM (inactive); GI50 [2]: 92.5 µM (inactive); GI50 [5]: 20.7 µM (inactive); GI50 [6]: 41.3 µM (inactive); GI50 [7]: 55.1 µM (inactive); GI50 [8]: 60.7 µM (inactive); GI50 [9]: > 100 µM (inactive); GI50 [10]: 99.3 µM (inactive); GI50 [12]: 30.3 µM (inactive); GI50 [13]: 44.6 µM; GI50 [14]: 37.8 µM (inactive); GI50 [15]: 46.5 µM (inactive); GI50 [16]: 20.2 µM (inactive); GI50 [17]: 33.4 µM (inactive); GI50 [18]: 22.4 µM (inactive); GI50 [19]: > 100 µM (inactive); GI50 [20]: 35.4 µM (inactive); GI50 [21]: 37.4 µM (inactive); GI50 [22]: 40.1 µM (inactive); GI50 [25]: 92.7 µM (inactive); GI50 [26]: 36.3 µM (inactive); GI50 [58]: 21.4 µM (inactive); GI50 [27]: 27.7 µM (inactive); GI50 [28]: 35.2 µM (inactive); GI50 [29]: 23.1 µM (inactive); GI50 [30]: 41.7 µM (inactive); GI50 [31]: 27.6 µM (inactive); GI50 [32]: 36.1 µM (inactive); GI50 [33]: > 100 µM (inactive); GI50 [34]: 91.8 µM (inactive); GI50 [35]: 33.7 µM (inactive); GI50 [37]: 33 µM (inactive); GI50 [38]: 48.5 µM (inactive); GI50 [39]: 29 µM (inactive); GI50 [41]: 23.8 µM (inactive); GI50 [44]: 25.9 µM (inactive); GI50 [45]: 47.2 µM (inactive); GI50 [46]: 57.8 µM (inactive); GI50 [48]: 25.5 µM (inactive); GI50 [49]: 23.2 µM (inactive); GI50 [50]: 13.5 µM (inactive); GI50 [52]: 29.6 µM (inactive); GI50 [53]: > 100 µM (inactive); GI50 [59]: 49.4 µM (inactive); GI50 [54]: 29 µM (inactive); GI50 [55]: 37.3 µM (inactive); GI50 [56]: 17.6 µM (inactive); GI50 [57]: 29.4 µM (inactive)
